The results in this text go back to PubChem BioAssay (NCI).

Molecules are shown by their SMILES. Where “and” joins values, the source holds several entries; their conditions need not be identical. Equal entries are not always repeated.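 Exposure lasted 48 hours, with cells grown in 96-well plates and compounds tested at five concentrations. At the GI50, growth is halved. The concentration for full growth arrest is given as TGI.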 Where only a bound is given, the exact number is not on record here.

Among the test systems are MDA-MB-231 breast; PC-3 prostate; T-47D breast; DLD-1 colon; DMS 114 small cell lung; SNB-78 CNS; MDA-N.
Holding throughout (test): NCI-60 cell line screen, 48 h

`CC(C)=CCC[C@](C)(O)[C@H]1CC[C@]2(C)[C@@H]1CC[C@@H]1[C@@]3(C)CC[C@H](OC(=O)CCC(=O)O)C(C)(C)[C@@H]3CC[C@]12C`: the GI50 with MDA-MB-231 breast is 30.1 µM; with PC-3 prostate, 8.79 µM; with T-47D breast, 19400 nM. The TGI in the assay on MDA-MB-231 breast was 87.5 µM; in the assay on PC-3 prostate it was 28.4 µM; with T-47D breast it was > 100 µM.
As for `O=[N+]([O-])C(=C(c1ccccc1)c1ccccc1)[N+](=O)[O-]`, the values for the TGI in the assay with DLD-1 colon and with DMS 114 small cell lung were 19.8 µM and 43.2 µM, respectively.
On to `O=C(O)CCN1C(=O)/C(=C/C(Cl)=C/c2ccccc2)SC1=S`, for which the GI50 with MDA-MB-231 breast is 3.38 µM; in the assay with PC-3 prostate, 2.87 µM; with T-47D breast, 1710 nM. Besides, the values for the TGI in the assay on MDA-MB-231 breast, with PC-3 prostate and in the assay on T-47D breast were 11 µM, 11.4 µM and 6.52 µM, respectively.
As to `S=C1OC2C3C4CC5C3C(O1)C1C5C4C21` (centres undefined), the TGI in the assay on DLD-1 colon, in the assay on DMS 114 small cell lung and in the assay on SNB-78 CNS was > 100 µM in each case.
On to `O=C1CCC(c2ccccc2)(c2ccccc2)CC1`, for which the TGI with MDA-MB-231 breast, in the assay on MDA-N, in the assay with PC-3 prostate and in the assay with T-47D breast was > 100 µM throughout.
Turning to `C[C@@H]1CC[C@H]2C(CN3CCN(CC4=C(C(F)(F)F)O[C@@H]5O[C@@]6(C)CC[C@H]7[C@H](C)CC[C@@H]4[C@@]57OO6)CC3)=C(C(F)(F)F)O[C@@H]3O[C@@]4(C)CC[C@@H]1[C@]32OO4`, the GI50 in the assay with MDA-MB-231 breast is 7.85 µM; in the assay on PC-3 prostate it was 0.351 µM; with T-47D breast it was 458 nM. The figures for the TGI with MDA-MB-231 breast, in the assay with PC-3 prostate and in the assay on T-47D breast were > 27.7 µM, > 100 µM and > 100 µM, respectively.
As for `C[C@H]1CC(=O)[C@@]2(O)C#C/C=C\C#C[C@@H]3Nc4c(cc(O)c5c4C(=O)c4ccccc4C5=O)[C@]24O[C@]314`, the results for the TGI in the assay with MDA-MB-231 breast, with MDA-N and in the assay with T-47D breast were > 25 µM, 0.26 µM and 0.612 µM, respectively.
Take `COc1ccccc1OCC(O)CO` (centres undefined): the GI50 was > 100 µM in the assay on MDA-MB-231 breast, > 100 µM in the assay with PC-3 prostate and > 100000 nM in the assay with T-47D breast. For the same compound, the TGI in the assay on MDA-MB-231 breast, with PC-3 prostate and in the assay on T-47D breast was > 100 µM each time.
Take `ClCc1ccc(Cn2cnc3ncnc(Cl)c32)cc1`: the GI50 with MDA-MB-231 breast is 1.76 µM; in the assay on PC-3 prostate it was 1.58 µM; in the assay on T-47D breast, 1290 nM. For the same compound, the figures for the TGI in the assay with MDA-MB-231 breast, with PC-3 prostate and with T-47D breast were 3.35 µM, 2.93 µM and 2.86 µM, respectively.
`CCNC1=CC(=O)c2ncccc2C1=O`: the GI50 with MDA-MB-231 breast is 2.66 µM; in the assay on PC-3 prostate, 2.71 µM; in the assay on T-47D breast, 4450 nM. Besides, the TGI was 21.1 µM with MDA-MB-231 breast, 22.8 µM in the assay with PC-3 prostate and 23.1 µM with T-47D breast.
As for `CC(Cl)CC(=O)Nc1ccc2c(c1)oc(=O)c1cc(NC(=O)CC(C)Cl)ccc12` (centres undefined), the GI50 is 1.98 µM in the assay with MDA-MB-231 breast, 12.4 µM in the assay on PC-3 prostate and 16200 nM in the assay with T-47D breast. Further, the TGI in the assay with MDA-MB-231 breast is 23.7 µM; with PC-3 prostate, 27.7 µM; in the assay with T-47D breast it was > 100 µM.
Take `NC(=O)Cn1c(=O)[nH]c(=O)c2[nH]cnc21`: the TGI with DMS 114 small cell lung was > 100 µM.
Take `O=c1c2c(=NCCCN3CCCC3)cc3c(=O)n(CCCN4CCCC4)c(=O)c4c(NCCCN5CCCC5)cc(c(O)n1CCCN1CCCC1)c2c4-3`: the GI50 was 4.89 µM in the assay on MDA-MB-231 breast, 3.66 µM in the assay with PC-3 prostate and 2890 nM with T-47D breast. For the same compound, the TGI amounted to 20.7 µM with MDA-MB-231 breast, 36.7 µM in the assay with PC-3 prostate and 18.1 µM in the assay on T-47D breast.
With `CCn1cc(C2NC(=O)c3cc(F)ccc3N2)c2cccc(Cl)c21` (centres undefined), the GI50 with MDA-MB-231 breast is 0.503 µM; in the assay with PC-3 prostate, 0.296 µM; in the assay with T-47D breast, 635 nM. Moreover, the TGI with MDA-MB-231 breast, in the assay with PC-3 prostate and in the assay on T-47D breast was > 100 µM each time.
As for `C=C1C(=O)O[C@H]2[C@H](OC(C)=O)[C@@H](C)CCC/C(C)=C/CC[C@]3(CO3)[C@H](O)C[C@@H]12`, in the assay on MDA-MB-231 breast, the GI50 was 5.25 µM and the TGI came out at 17.2 µM. For the same compound, in the assay with T-47D breast, the GI50 is 2800 nM and the TGI came out at 9.88 µM.
Take `Cn1cc(/C=C2\C(=O)Nc3cccnc32)c2ccccc21`: the GI50 in the assay with MDA-MB-231 breast is 11.1 µM; with PC-3 prostate, 22.9 µM; in the assay with T-47D breast, > 17100 nM. For the same compound, the TGI with MDA-MB-231 breast, with PC-3 prostate and in the assay on T-47D breast was > 25 µM each time.
Consider `Cc1cc(I)cc(CN(C)CCCCN2CCCC2)c1O`, for which the GI50 in the assay on MDA-MB-231 breast was 18.8 µM; in the assay on PC-3 prostate, 24.8 µM; in the assay with T-47D breast, 15700 nM. For the same compound, the results for the TGI with MDA-MB-231 breast, with PC-3 prostate and in the assay with T-47D breast were 51.1 µM, 83.6 µM and 40.4 µM, respectively.
As to `C1CCN2CC34CC(CC5CCCN(C6CCCC3N6)C54)C2C1` (centres undefined), the TGI in the assay on MDA-MB-231 breast, in the assay with MDA-N, in the assay with PC-3 prostate and in the assay on T-47D breast was > 100 µM throughout.
Consider `Cc1cc(C#Cc2ccccc2)ccc1-n1c(/C=C/c2ccc(O)cc2)nc2ccccc2c1=O`, for which the values for the GI50 with MDA-MB-231 breast, in the assay with PC-3 prostate and in the assay on T-47D breast were 3.89 µM, 3.24 µM and 2020 nM, respectively. In addition, the TGI in the assay with MDA-MB-231 breast is 29.5 µM; with PC-3 prostate, > 100 µM; with T-47D breast, 8.13 µM.
With `C=C(C)[C@@H]1CC[C@]2(C#N)CC[C@]3(C)[C@H](CC[C@@H]4[C@@]5(C)CCCNC(C)(C)[C@@H]5CC[C@]43C)[C@@H]12`, the GI50 was 1.84 µM with MDA-MB-231 breast, 2.7 µM in the assay on PC-3 prostate and 1760 nM in the assay on T-47D breast. In addition, the TGI came out at 3.38 µM in the assay with MDA-MB-231 breast, 10.7 µM in the assay on PC-3 prostate and 4.05 µM in the assay on T-47D breast.
For `Cc1ccc(S(=O)(=O)ON=C2CC(c3ccccc3)N(C)C(c3ccccc3)C2)cc1` (centres undefined), the TGI was 29.9 µM with DMS 114 small cell lung; 64.7 µM and 52.8 µM with SNB-78 CNS.
Turning to `CCCCN=C(OC1C=CCCC1)SC` (centres undefined), the TGI in the assay on MDA-MB-231 breast, with MDA-N, in the assay on PC-3 prostate and in the assay with T-47D breast was > 100 µM in each case.
As to `CCOC(=O)c1cc2cc([N+](=O)[O-])ccc2oc1=O`, the TGI in the assay on MDA-MB-231 breast, with MDA-N, with PC-3 prostate and in the assay on T-47D breast was > 100 µM each time.
